Assay results taken from ChEMBL document CHEMBL3351767, “The discovery of Polo-like kinase 4 inhibitors: design and optimization of spiro[cyclopropane-1,3'[3H]indol]-2'(1'H).ones as orally bioavailable antitumor agents” (J Med Chem, 2015).
Converted amounts (≈) assume the structure as drawn.

Key:
[1] = target: Serine/threonine-protein kinase PLK1 (Homo sapiens, UniProt P53350); test: Inhibition of PLK1 (unknown origin) by FRET-based homogeneous assay
[2] = Half life in mouse liver microsomes at 1 uM in presence of NADPH by LC-MS method; type: ADME
[3] = target: T1, Receptor-type tyrosine-protein kinase FLT3 (Homo sapiens, UniProt P36888); test: Inhibition of FLT3 (unknown origin) by FRET-based homogeneous assay
T1 sequence (P36888 whole entry): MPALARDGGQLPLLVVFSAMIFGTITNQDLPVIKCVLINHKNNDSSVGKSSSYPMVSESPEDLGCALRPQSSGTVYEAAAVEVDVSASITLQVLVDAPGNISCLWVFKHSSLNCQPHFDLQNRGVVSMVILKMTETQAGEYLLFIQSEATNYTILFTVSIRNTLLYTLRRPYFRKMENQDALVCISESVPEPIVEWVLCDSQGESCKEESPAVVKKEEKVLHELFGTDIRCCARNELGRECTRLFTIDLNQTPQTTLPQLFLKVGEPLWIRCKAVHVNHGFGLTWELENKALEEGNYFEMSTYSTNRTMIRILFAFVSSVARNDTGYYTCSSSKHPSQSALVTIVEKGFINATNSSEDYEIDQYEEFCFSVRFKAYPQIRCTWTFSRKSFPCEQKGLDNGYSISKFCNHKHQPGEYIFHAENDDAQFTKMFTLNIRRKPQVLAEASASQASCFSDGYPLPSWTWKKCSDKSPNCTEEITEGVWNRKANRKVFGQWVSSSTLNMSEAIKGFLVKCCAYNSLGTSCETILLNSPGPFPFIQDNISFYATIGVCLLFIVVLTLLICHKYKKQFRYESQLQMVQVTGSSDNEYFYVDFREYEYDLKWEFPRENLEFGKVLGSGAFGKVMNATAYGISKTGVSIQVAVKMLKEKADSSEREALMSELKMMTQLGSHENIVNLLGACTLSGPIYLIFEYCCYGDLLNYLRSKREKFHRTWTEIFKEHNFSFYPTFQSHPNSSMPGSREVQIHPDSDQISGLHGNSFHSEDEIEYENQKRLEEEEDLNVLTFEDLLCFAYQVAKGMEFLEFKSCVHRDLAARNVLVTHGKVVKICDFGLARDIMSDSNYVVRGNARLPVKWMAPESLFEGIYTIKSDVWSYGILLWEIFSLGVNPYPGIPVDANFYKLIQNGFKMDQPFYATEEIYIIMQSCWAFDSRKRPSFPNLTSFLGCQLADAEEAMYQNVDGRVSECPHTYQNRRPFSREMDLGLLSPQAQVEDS

Cytochrome P450 2C9 = Cytochrome P450 2C9 (Homo sapiens, UniProt P11712); test: Inhibition of CYP2C9 (unknown origin) using MFC substrate after 45 mins by fluorescence assay; type: ADME
Cytochrome P450 2C9, sequence (P11712 whole entry): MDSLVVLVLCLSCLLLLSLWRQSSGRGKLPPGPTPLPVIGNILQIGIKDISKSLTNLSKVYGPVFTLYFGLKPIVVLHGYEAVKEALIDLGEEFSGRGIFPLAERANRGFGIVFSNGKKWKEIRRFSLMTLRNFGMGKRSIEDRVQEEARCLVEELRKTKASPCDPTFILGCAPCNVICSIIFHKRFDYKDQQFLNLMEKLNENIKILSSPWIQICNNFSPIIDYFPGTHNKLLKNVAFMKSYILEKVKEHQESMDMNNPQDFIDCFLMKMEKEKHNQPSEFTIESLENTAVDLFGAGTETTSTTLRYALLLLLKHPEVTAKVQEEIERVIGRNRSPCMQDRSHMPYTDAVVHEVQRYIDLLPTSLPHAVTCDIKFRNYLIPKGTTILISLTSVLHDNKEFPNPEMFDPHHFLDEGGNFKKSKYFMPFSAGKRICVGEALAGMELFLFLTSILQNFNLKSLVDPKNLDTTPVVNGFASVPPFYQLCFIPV

[4] = target: Serine/threonine-protein kinase PLK3 (Homo sapiens, UniProt Q9H4B4); test: Inhibition of PLK3 (unknown origin) by FRET-based homogeneous assay
Serine/threonine-protein kinase PLK3, sequence (Q9H4B4 whole entry): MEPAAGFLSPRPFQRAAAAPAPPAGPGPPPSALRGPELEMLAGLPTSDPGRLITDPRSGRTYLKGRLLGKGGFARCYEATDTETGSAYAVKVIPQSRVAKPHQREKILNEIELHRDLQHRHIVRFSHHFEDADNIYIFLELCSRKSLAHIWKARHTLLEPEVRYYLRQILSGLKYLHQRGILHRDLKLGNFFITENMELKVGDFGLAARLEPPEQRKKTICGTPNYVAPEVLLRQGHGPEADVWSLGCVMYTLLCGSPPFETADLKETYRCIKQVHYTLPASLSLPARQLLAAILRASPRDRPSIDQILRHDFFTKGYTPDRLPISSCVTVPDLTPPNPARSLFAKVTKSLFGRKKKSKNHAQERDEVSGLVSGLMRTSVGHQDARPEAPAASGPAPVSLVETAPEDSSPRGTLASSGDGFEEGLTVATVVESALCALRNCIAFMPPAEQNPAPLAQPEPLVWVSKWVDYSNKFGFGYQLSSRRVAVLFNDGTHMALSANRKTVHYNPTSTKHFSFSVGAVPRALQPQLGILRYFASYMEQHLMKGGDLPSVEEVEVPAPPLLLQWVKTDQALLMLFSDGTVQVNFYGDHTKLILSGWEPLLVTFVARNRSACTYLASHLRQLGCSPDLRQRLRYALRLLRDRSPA

[5] = Half life in human liver microsomes at 1 uM in presence of NADPH by LC-MS method; type: ADME
MCF7 = test: Cytotoxicity against human MCF7 cells after 5 days by SRB assay; type: functional; details: MCF7, 120 h
[6] = Cmax in SCID mouse at 50 mg/kg, ip after 8 hrs by LCMS/MS method; type: ADME, organism-based; design: dose 50 mg/kg, route intraperitoneal; details: in vivo
Cytochrome P450 2C19 = Cytochrome P450 2C19 (Homo sapiens, UniProt P33261); test: Inhibition of CYP2C19 (unknown origin) using MFC substrate after 30 mins by fluorescence assay; type: ADME
Cytochrome P450 2C19, sequence (P33261 whole entry): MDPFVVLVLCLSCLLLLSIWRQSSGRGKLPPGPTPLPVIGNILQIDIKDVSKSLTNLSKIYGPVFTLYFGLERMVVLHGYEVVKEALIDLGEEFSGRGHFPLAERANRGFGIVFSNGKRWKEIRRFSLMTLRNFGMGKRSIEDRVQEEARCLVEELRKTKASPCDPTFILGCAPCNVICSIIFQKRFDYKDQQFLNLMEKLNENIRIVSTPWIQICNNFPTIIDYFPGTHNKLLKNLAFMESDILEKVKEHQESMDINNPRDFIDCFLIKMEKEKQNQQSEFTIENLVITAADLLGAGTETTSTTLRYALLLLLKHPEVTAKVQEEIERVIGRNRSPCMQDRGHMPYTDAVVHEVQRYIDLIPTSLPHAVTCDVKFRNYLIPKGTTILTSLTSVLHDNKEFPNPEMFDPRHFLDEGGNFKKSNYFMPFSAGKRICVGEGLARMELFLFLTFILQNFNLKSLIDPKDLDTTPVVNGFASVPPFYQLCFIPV

[7] = AUC in SCID mouse at 50 mg/kg, ip after 8 hrs by LCMS/MS method; type: ADME, organism-based; design: time < 8 hr, dose 50 mg/kg, route intraperitoneal; details: plasma
[8] = Aqueous solubility at pH 7.4; type: physicochemical; details: buffer
Cytochrome P450 2D6 = Cytochrome P450 2D6 (Homo sapiens, UniProt P10635); test: Inhibition of CYP2D6 (unknown origin) using AMMC substrate after 45 mins by fluorescence assay; type: ADME
Cytochrome P450 2D6, sequence (P10635 whole entry): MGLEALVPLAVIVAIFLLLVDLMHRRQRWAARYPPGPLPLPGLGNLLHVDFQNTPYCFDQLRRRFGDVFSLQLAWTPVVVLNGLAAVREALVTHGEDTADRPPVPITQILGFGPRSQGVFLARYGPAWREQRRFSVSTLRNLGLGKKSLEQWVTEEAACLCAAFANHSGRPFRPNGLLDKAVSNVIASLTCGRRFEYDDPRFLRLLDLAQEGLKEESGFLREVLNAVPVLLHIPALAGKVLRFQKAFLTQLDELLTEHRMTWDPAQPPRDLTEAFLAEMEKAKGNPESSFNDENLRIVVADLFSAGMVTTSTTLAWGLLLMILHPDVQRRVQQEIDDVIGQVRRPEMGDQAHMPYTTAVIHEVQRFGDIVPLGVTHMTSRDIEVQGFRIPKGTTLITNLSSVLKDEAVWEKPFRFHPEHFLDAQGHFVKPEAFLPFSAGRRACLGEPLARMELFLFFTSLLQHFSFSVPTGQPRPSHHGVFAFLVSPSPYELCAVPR

Cytochrome P450 1A2 = target: T2, Cytochrome P450 1A2 (Homo sapiens, UniProt P05177); test: (§1) Inhibition of CYP1A2 (unknown origin) using CEC substrate after 15 mins by fluorescence assay; type: ADME
T2 sequence (P05177 whole entry): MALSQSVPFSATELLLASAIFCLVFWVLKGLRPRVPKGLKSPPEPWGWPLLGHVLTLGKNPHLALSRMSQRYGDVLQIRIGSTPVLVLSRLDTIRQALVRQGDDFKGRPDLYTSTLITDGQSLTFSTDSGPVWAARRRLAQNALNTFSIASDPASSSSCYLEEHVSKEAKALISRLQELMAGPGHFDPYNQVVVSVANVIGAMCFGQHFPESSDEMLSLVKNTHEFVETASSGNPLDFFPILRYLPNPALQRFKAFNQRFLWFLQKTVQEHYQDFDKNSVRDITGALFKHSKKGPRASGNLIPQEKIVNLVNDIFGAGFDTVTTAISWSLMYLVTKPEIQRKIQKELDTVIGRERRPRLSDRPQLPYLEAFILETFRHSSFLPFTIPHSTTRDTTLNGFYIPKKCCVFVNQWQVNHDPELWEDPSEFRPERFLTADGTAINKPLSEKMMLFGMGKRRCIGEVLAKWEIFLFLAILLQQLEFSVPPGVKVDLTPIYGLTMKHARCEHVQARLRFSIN

Cytochrome P450 3A4 = Cytochrome P450 3A4 (Homo sapiens, UniProt P08684); test: Inhibition of CYP3A4 (unknown origin) using BFC substrate after 30 mins by fluorescence assay; type: ADME
Cytochrome P450 3A4, sequence (P08684 whole entry): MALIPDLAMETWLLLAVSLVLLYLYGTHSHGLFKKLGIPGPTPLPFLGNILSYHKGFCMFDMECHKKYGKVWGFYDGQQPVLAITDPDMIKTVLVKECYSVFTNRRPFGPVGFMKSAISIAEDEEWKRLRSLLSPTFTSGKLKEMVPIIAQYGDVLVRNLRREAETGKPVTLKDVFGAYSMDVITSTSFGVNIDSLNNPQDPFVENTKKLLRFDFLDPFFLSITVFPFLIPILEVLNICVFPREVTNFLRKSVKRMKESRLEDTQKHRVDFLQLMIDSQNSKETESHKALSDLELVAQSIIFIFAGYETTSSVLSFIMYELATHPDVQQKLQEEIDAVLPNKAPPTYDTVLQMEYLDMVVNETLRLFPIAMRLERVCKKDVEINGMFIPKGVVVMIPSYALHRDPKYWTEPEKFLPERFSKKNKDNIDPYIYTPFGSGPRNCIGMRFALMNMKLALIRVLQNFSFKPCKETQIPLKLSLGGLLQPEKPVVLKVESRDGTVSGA

[9] = Cytotoxicity against human SKBR3 cells after 5 days by SRB assay; type: functional; details: SK-BR-3, 120 h
[10] = target: Serine/threonine-protein kinase PLK2 (Homo sapiens, UniProt Q9NYY3); test: Inhibition of PLK2 (unknown origin) by FRET-based homogeneous assay
[11] = target: Vascular endothelial growth factor receptor 2 (Homo sapiens, UniProt P35968); test: Inhibition of KDR (unknown origin) by FRET-based homogeneous assay
Vascular endothelial growth factor receptor 2, sequence (P35968 whole entry): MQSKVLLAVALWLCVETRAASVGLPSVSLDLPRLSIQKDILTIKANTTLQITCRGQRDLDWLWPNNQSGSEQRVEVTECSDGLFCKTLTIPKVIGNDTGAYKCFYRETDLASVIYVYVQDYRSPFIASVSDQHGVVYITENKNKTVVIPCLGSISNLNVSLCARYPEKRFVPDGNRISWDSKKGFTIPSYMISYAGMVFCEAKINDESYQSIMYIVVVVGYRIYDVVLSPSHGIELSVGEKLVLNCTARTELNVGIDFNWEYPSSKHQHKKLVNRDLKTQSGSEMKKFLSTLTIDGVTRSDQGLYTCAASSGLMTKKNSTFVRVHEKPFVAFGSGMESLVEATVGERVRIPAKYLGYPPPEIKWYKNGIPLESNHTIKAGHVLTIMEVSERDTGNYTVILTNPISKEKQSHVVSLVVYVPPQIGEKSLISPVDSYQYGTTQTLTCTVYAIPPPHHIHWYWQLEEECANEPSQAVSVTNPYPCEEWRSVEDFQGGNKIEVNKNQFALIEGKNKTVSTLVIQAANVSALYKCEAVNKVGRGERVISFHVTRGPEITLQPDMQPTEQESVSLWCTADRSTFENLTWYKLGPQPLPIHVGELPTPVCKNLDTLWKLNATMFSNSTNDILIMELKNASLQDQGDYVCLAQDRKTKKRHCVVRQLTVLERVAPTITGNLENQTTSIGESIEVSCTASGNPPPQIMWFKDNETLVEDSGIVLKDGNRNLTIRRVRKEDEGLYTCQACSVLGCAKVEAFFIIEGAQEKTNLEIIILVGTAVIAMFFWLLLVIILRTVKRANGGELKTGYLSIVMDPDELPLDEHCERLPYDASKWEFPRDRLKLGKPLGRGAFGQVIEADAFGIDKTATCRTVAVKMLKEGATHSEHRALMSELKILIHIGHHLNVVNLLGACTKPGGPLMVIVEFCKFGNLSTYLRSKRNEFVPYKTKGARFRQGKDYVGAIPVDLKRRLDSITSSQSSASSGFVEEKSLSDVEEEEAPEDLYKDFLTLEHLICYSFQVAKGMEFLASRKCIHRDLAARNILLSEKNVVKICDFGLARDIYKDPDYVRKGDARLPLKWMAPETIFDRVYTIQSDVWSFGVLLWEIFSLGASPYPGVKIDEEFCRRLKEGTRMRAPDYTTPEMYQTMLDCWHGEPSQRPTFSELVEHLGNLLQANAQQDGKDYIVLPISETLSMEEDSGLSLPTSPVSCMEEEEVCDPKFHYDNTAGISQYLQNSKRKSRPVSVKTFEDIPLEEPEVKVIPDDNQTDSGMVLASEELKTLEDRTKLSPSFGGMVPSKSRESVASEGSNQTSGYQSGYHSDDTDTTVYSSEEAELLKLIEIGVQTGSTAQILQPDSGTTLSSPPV

MDA-MB-231 = test: Cytotoxicity against human MDA-MB-231 cells after 5 days by SRB assay; type: functional; details: MDA-MB-231, 120 h
MDA-MB-468 [12] = test: Cytotoxicity against human MDA-MB-468 cells after 5 days by SRB assay; type: functional; details: MDA-MB-468, 120 h
[13] = Cmax in SCID mouse at 25 mg/kg, po by LCMS/MS method; type: ADME, organism-based; design: dose 25 mg/kg, route oral; details: in vivo
[14] = AUC in SCID mouse at 25 mg/kg, po by LCMS/MS method; type: ADME, organism-based; design: dose 25 mg/kg, route oral; details: plasma
[15] = Protein binding in plasma (unknown origin); type: ADME, cell-free; details: read-out: PPB (converted)
CYP1A2 = target: T3, CYP1A2 (Homo sapiens, UniProt P05177); test: as §1; type: ADME; details: probe CEC
T3 sequence (P05177 whole entry): T2 sequence (P05177 whole entry)

Aurora kinase B = Aurora kinase B (Homo sapiens, UniProt Q96GD4); test: Inhibition of AURKB (unknown origin) by FRET-based homogeneous assay
Aurora kinase B, sequence (Q96GD4 whole entry, the tested form may be a part): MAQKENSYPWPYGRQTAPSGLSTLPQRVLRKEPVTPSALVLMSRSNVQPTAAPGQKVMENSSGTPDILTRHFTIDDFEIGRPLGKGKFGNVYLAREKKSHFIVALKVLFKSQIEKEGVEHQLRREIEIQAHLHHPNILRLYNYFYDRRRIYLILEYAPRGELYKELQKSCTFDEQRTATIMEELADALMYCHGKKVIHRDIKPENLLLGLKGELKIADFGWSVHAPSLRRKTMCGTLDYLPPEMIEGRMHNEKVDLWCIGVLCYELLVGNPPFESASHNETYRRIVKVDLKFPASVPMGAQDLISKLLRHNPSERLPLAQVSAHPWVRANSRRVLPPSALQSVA

[16] = target: T4, Serine/threonine-protein kinase PLK4 (Homo sapiens, UniProt O00444); test: Inhibition of human N-terminal GST-tagged PLK4 (1 to 391 residues) expressed in Escherichia coli incubated for 30 mins by ELISA method
T4 sequence (O00444 whole entry): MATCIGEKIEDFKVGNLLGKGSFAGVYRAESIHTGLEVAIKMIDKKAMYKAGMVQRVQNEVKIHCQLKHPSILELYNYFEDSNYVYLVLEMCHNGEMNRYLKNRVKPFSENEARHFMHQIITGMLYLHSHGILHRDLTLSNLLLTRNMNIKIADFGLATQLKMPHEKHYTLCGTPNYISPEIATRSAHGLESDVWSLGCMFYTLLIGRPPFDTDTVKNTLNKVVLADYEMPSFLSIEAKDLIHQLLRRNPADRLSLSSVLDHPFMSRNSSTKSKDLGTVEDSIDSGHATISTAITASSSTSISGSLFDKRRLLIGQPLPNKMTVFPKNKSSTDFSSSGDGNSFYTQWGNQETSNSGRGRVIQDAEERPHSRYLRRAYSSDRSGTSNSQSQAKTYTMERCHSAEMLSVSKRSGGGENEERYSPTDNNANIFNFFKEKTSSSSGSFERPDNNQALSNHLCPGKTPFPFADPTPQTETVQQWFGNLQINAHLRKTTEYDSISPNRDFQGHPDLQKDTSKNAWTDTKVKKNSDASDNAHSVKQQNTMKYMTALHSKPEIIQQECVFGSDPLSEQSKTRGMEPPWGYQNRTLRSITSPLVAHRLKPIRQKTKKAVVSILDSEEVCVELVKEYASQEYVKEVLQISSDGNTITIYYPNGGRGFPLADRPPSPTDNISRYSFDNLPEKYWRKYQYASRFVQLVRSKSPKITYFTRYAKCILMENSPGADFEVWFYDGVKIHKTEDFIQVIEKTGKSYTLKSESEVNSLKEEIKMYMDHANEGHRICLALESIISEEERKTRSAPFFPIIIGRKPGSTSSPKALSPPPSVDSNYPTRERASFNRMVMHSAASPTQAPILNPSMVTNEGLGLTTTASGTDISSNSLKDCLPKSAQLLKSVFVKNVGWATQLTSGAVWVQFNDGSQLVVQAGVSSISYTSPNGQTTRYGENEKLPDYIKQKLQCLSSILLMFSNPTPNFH

Mus musculus = test: Toxicity in human MDA-MB-468 cells xenografted mouse assessed as reduction in body weight at 25 mg/kg, po QD for 21 days; type: organism-based; design: dose 25 mg/kg, route oral; details: in vivo, 504 h
MDA-MB-468 [17] = test: Antitumor activity against human MDA-MB-468 cells xenografted in mouse assessed as tumor growth inhibition at 50 mg/kg, ip QD for 21 days; type: functional, organism-based; design: dose 50 mg/kg

Serine/threonine-protein kinase PLK1, sequence (P53350 whole entry): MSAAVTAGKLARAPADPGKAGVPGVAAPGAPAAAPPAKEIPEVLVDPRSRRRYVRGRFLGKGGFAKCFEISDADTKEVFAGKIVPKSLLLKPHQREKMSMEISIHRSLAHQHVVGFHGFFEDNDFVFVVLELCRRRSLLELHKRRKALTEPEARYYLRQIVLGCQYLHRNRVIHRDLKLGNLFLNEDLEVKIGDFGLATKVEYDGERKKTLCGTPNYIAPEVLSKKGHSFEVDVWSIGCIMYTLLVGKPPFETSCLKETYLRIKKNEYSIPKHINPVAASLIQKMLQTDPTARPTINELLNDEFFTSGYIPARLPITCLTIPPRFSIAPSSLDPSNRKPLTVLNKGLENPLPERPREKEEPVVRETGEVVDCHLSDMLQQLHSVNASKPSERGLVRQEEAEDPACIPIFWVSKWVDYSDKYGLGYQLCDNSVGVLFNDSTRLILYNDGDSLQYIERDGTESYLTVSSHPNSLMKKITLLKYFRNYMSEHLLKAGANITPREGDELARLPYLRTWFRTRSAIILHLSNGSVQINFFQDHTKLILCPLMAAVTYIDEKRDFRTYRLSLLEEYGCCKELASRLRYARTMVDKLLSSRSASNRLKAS

| Compound | IC50 [1] [µM] | half-life at 1 µM [2] [min] | IC50 [3] [nM] | IC50 (Cytochrome P450 2C9) [nM] | IC50 [4] [µM] | half-life at 1 µM [5] [min] | GI50 (MCF7) [nM] | Cmax [6] [ng/mL] | IC50 (Cytochrome P450 2C19) [nM] | AUC at 8 h [7] [ng·h/mL] | solubility [8] [µg/mL] | IC50 (Cytochrome P450 2D6) [µM] | IC50 (Cytochrome P450 1A2) [µM] | IC50 (Cytochrome P450 3A4) [nM] | GI50 [9] [µM] | IC50 [10] [µM] | IC50 [11] [nM] | GI50 (MDA-MB-231) [nM] | GI50 (MDA-MB-468 [12]) [nM] | fraction unbound [15] | further results |
| --- | --- | --- | --- | --- | --- | --- | --- | --- | --- | --- | --- | --- | --- | --- | --- | --- | --- | --- | --- | --- | --- |
| O=C1Nc2ccccc2[C@]12C[C@H]2c1ccc2c(/C=C/c3ccncc3)n[nH]c2c1 (relative stereo) | > 100 | 18 | 33 | 30 | > 100 | > 60 | 600 | 1700 | 260 | 2900 | 0.4 (≈ 1.06 µM) | 0.7 | 1.4 | > 1000 | 20.3 | > 100 | 1300 | 680 | 360 | 0.045 | Cmax [13]: 470 ng/mL; AUC [14]: 650 ng·h/mL |
| O=C1Nc2ccccc2/C1=C\c1ccc2c(/C=C/c3ccncc3)n[nH]c2c1 | > 100 | 6 | 35 | – | > 100 | 29 | – | < 10 | – | – | 0.21 (≈ 0.576 µM) | 20 | – | 1000 | – | > 100 | 34 | – | – | 0.011 | IC50 at 15 min (CYP1A2): > 10 µM; IC50 (Aurora kinase B): 24 nM; IC50 [16]: 2.4 nM |
| COc1ccc2c(c1)[C@]1(C[C@H]1c1ccc3c(/C=C/c4ccc(CN(C)C)cc4)n[nH]c3c1)C(=O)N2 (relative stereo) | – | – | 19 | 850 | – | – | < 1 | – | 750 | – | – | > 10 | > 10 | > 1000 | 6.4 | – | 910 | < 10 | 10 | – | Activity (Mus musculus): Non-toxic; Cmax [13]: 350 ng/mL; AUC [14]: 730 ng·h/mL |
| Cc1cc(Nc2cc(N3CCN(C)CC3)nc(Sc3ccc(NC(=O)C4CC4)cc3)n2)n[nH]1 | – | – | – | – | – | – | – | – | – | – | – | – | – | – | – | – | – | – | – | – | TGI (MDA-MB-468 [17]): 73% |
| CN(C)Cc1ccc(/C=C/c2n[nH]c3cc(/C=C4/C(=O)Nc5ccccc54)ccc23)cc1 | – | 7 | 35 | 1400 | – | 40 | 7 | 870 | – | 830 | < 0.1 | – | – | 940 | – | – | – | – | 12 | 0.016 | IC50 at 15 min (CYP1A2): > 10 µM; IC50 [16]: 4 nM |
| CN(C)Cc1ccc(/C=C/c2n[nH]c3cc([C@@H]4C[C@@]45C(=O)Nc4ccccc45)ccc23)cc1 (relative stereo) | > 100 | 13 | – | > 1000 | > 100 | > 60 | < 10 | 2600 | > 1000 | 7200 | 1.7 (≈ 3.91 µM) | 3.1 | > 10 | > 10000 | 17.8 | > 100 | 110 | < 10 | < 10 | 0.053 | Activity (Mus musculus): Non-toxic; Cmax [13]: 290 ng/mL; AUC [14]: 310 ng·h/mL |
